For 18 compounds, MIC results are on record in patent US20090156577A1, “7-AMINO ALKYLIDENYL-HETEROCYCLIC QUINOLONES AND NAPHTHYRIDONES” (priority 2004, published 2009).

The test system of this test is pathogenic bacteria. Nature of the test: MIC by microdilution broth method (NCCLS M7-A4), in vitro antibacterial activity. In kind it is cell-based. The protocol:
Minimal inhibitory concentration (MIC) has been an indicator of in vitro antibacterial activity widely used in the art. The in vitro antimicrobial activity of the compounds was determined by the microdilution broth method following the test method from the National Committee for Clinical Laboratory Standards (NCCLS). This method is described in the NCCLS Document M7-A4, Vol. 17, No. 2, “Methods for Dilution Antimicrobial Susceptibility Test for Bacteria that Grow Aerobically—Fourth Edition”, which is incorporated herein by reference.
In this method two-fold serial dilutions of drug in cation adjusted Mueller-Hinton broth are added to wells in microdilution trays. The test organisms are prepared by adjusting the turbidity of actively growing broth cultures so that the final concentration of test organism after it is added to the wells is approximately 5×10^4 CFU/well.
Following inoculation of the microdilution trays, the trays are incubated at 35° C. for 16-20 hours and then read. […] The amount of growth in the wells containing the test compound is compared with the amount of growth in the growth-control wells (no test compound) used in each tray. As set forth in Table 5, compounds of the present invention were tested against a variety of pathogenic bacteria resulting in a range of activities depending on the organism tested.
On the technique in general: Broth dilution looks for growth in wells or tubes with falling amounts of substance.

Where [1] appears, read: Staphylococcus aureus, Organism A: Staphylococcus aureus OC4172, read-out: MIC.
Setting [2] is: Streptococcus pneumoniae, ATCC49619, Organism E: Streptococcus pneumoniae ATCC 49619, read-out: MIC.
Setting [3] is: Streptococcus pneumoniae, Organism C: fluoroquinolone-resistant clinical isolate of Streptococcus pneumoniae (QRDR amino acid substitutions).
The mark [4] stands for this setting: Streptococcus pneumoniae, Organism D: fluoroquinolone-resistant clinical isolate of Streptococcus pneumoniae (QRDR amino acid substitutions).
The mark [5] stands for this setting: Organism A: Staphylococcus aureus OC4172.
Where [6] appears, read: Organism C: fluoroquinolone-resistant clinical isolate of Streptococcus pneumoniae (QRDR amino acid substitutions).
[7] abbreviates: Organism E: Streptococcus pneumoniae ATCC 49619.
[8] abbreviates: Streptococcus pneumoniae, Organism B: fluoroquinolone-resistant clinical isolate of Streptococcus pneumoniae (QRDR amino acid substitutions).

The MIC is the lowest concentration that inhibits growth of the organism.

Converted amounts (≈) assume the structure as drawn. Structures can show the parent of a compound that is named as a salt. Where two headings read alike, the source gives them in different places.

With `CCC(CN)=C1CCN(c2nc3c(cc2F)c(=O)c(C(=O)O)cn3C2CC2)CC1` [Compound 69, 7-[4-(1-Aminomethyl-propylidene)-piperidin-1-yl]-1-cyclopropyl-6-fluoro-4-oxo-1,4-dihydro-[1,8]naphthyridine-3-carboxylic acid], the MIC was determined as 0.06 µg/mL (≈ 0.15 µM) under setting [1], 0.25 µg/mL (≈ 0.624 µM) under setting [2], 1 µg/mL (≈ 2.5 µM) under setting [3] and 2 µg/mL (≈ 4.99 µM) under setting [4].

For `COc1c(N2CCC(=C(C)CN)CC2)c(F)cc2c(=O)c(C(=O)O)cn(C3CC3)c12` [Compound 70, 7-[4-(2-Amino-1-methyl-ethylidene)-piperidin-1-yl]-1-cyclopropyl-6-fluoro-8-methoxy-4-oxo-1,4-dihydro-quinoline-3-carboxylic acid], the MIC came out at 0.03 µg/mL (≈ 0.0722 µM) under setting [5], 0.25 µg/mL (≈ 0.602 µM) under setting [6], 0.12 µg/mL (≈ 0.289 µM) under setting [7] and 0.25 µg/mL (≈ 0.602 µM) under setting [4].

Regarding `CCC(CN)=C1CCN(c2c(F)cc3c(=O)c(C(=O)O)cn(C4CC4)c3c2OC)CC1` [Compound 71, 7-[4-(1-Aminomethyl-propylidene)-piperidin-1-yl]-1-cyclopropyl-6-fluoro-8-methoxy-4-oxo-1,4-dihydro-quinoline-3-carboxylic acid], the MIC came out at 0.03 µg/mL (≈ 0.0698 µM) under setting [1], 0.12 µg/mL (≈ 0.279 µM) under setting [2], 0.25 µg/mL (≈ 0.582 µM) under setting [3] and 0.5 µg/mL (≈ 1.16 µM) under setting [4].

For the compound `CNCC(Cl)=C1CCN(c2c(F)cc3c(=O)c(C(=O)O)cn(C4CC4)c3c2OC)CC1` [Compound 72, 7-[4-(1-Chloro-2-methylamino-ethylidene)-piperidin-1-yl]-1-cyclopropyl-6-fluoro-8-methoxy-4-oxo-1,4-dihydroquinoline-3-carboxylic Acid Trifluoroacetic Acid Salt], the MIC was 0.03 µg/mL (Staphylococcus aureus, Organism A: Staphylococcus aureus OC4172); 0.12 µg/mL (Streptococcus pneumoniae, ATCC49619, Organism E: Streptococcus pneumoniae ATCC 49619); 0.25 µg/mL under setting [8]; 0.5 µg/mL under setting [3]; 0.25 µg/mL under setting [4].

In the case of `NCC(Cl)=C1CCN(c2c(F)cc3c(=O)c(C(=O)O)cn(C4CC4)c3c2OC(F)F)CC1` [Compound 73, 7-[4-(2-Amino-1-chloro-ethylidene)-piperidin-1-yl]-1-cyclopropyl-8-difluoromethoxy-6-fluoro-4-oxo-1,4-dihydro-quinoline-3-carboxylic acid], the minimum inhibitory concentration (MIC) reads like this: under setting [1], 0.06 µg/mL (≈ 0.127 µM); under setting [2], 0.12 µg/mL (≈ 0.254 µM); under setting [8], 0.5 µg/mL (≈ 1.06 µM); under setting [3], 1 µg/mL (≈ 2.12 µM); under setting [4], 0.25 µg/mL (≈ 0.53 µM).

`CNCC(C)=C1CCN(c2c(F)cc3c(=O)c(C(=O)O)cn(C4CC4)c3c2OC(F)F)CC1` [Compound 74, 1-Cyclopropyl-8-difluoromethoxy-6-fluoro-7-[4-(1-methyl-2-methylamino-ethylidene)-piperidin-1-yl]-4-oxo-1,4-dihydro-quinoline-3-carboxylic acid]: the MIC runs as follows: under setting [6], 1 µg/mL (≈ 2.15 µM); under setting [7], 0.12 µg/mL (≈ 0.258 µM); under setting [1], 0.06 µg/mL (≈ 0.129 µM); under setting [4], 0.25 µg/mL (≈ 0.537 µM).

Turning to `CCNCC(Cl)=C1CCN(c2c(F)cc3c(=O)c(C(=O)O)cn(C4CC4)c3c2OC)CC1` [Compound 75, 7-[4-(1-Chloro-2-ethylamino-ethylidene)-piperidin-1-yl]-1-cyclopropyl-6-fluoro-8-methoxy-4-oxo-1,4-dihydro-quinoline-3-carboxylic acid], the MIC is 0.12 µg/mL (≈ 0.259 µM) under setting [1]; 0.25 µg/mL (≈ 0.539 µM) under setting [2]; 1 µg/mL (≈ 2.16 µM) under setting [8]; 1 µg/mL (≈ 2.16 µM) under setting [3]; 1 µg/mL (≈ 2.16 µM) under setting [4].

In the case of `NCC(Cl)=C1CCN1c1cc2c(cc1F)c(=O)c(C(=O)O)cn2C1CC1` [Compound 76, 7-[4-(2-Amino-1-chloro-ethylidene)-azetidin-1-yl}-1-cyclopropyl-6-fluoro-4-oxo-1,4-dihydro-quinoline-3-carboxylic acid], the MIC is, setting by setting: under setting [1], 0.03 µg/mL (≈ 0.0794 µM); under setting [2], 0.25 µg/mL (≈ 0.662 µM); under setting [8], 2 µg/mL (≈ 5.29 µM); under setting [3], 1 µg/mL (≈ 2.65 µM); under setting [4], 2 µg/mL (≈ 5.29 µM).

In the case of `C[C@H]1COc2c(N3CC(=C(Cl)CN)C3)c(F)cc3c(=O)c(C(=O)O)cn1c23` [Compound 77, 9-[3-(2-Amino-1-chloro-ethylidene)-azetidin-1-yl}-8-fluoro-(3S)-3-methyl-6-oxo-2,3-dihydro-6H-1-oxa-3a-aza-phenalene-5-carboxylic acid], the MIC under setting [1] was found to be 0.12 µg/mL (≈ 0.305 µM); the MIC under setting [2] worked out at 1 µg/mL (≈ 2.54 µM); the MIC under setting [8] came to 8 µg/mL (≈ 20.3 µM); the MIC under setting [3] stood at 16 µg/mL (≈ 40.6 µM); the MIC under setting [4] stood at 16 µg/mL (≈ 40.6 µM).

`COc1c(N2CCC(=C(F)CN)C(C)(C)C2)c(F)cc2c(=O)c(C(=O)O)cn(C3CC3)c12` [Compound 78, 7-[4-(2-Amino-1-fluoro-ethylidene)-3,3-dimethyl-piperidin-1-yl]-1-cyclopropyl-6-fluoro-8-methoxy-4-oxo-1,4-dihydro-quinoline-3-carboxylic acid]: the MIC runs as follows: under setting [1], 1 µg/mL (≈ 2.23 µM); under setting [2], 0.25 µg/mL (≈ 0.559 µM); under setting [8], 2 µg/mL (≈ 4.47 µM); under setting [3], 1 µg/mL (≈ 2.23 µM).

Turning to `CNCC(C)=C1CCN(c2nc3c(cc2F)c(=O)c(C(=O)O)cn3C2CC2)CC1` [Compound 79, 1-Cyclopropyl-6-fluoro-7-[4-(1-methyl-2-methylamino-ethylidene)-piperidin-1-yl]-4-oxo-1,4-dihydro-[1,8]naphthyridine-3-carboxylic acid], the MIC under setting [5] was found to be 0.06 µg/mL (≈ 0.15 µM), the MIC under setting [2] is 0.25 µg/mL (≈ 0.624 µM), the MIC under setting [3] came out at 2 µg/mL (≈ 4.99 µM) and the MIC under setting [4] came out at 1 µg/mL (≈ 2.5 µM).

Turning to `NCC(F)=C1CN(c2nc3c(cc2F)c(=O)c(C(=O)O)cn3C2CC2)C1` [Compound 80, 7-[3-(2-Amino-1-fluoro-ethylidene)-azetidin-1-yl]-1-cyclopropyl-6-fluoro-4-oxo-1,4-dihydro-[1,8]naphthyridine-3-carboxylic acid], the MIC under setting [1] is 0.06 µg/mL (≈ 0.166 µM); the MIC under setting [2] came out at 0.12 µg/mL (≈ 0.331 µM); the MIC under setting [8] stood at 0.5 µg/mL (≈ 1.38 µM); the lowest concentration to inhibit growth under setting [3] (MIC) was 2 µg/mL (≈ 5.52 µM); the MIC under setting [4] was 1 µg/mL (≈ 2.76 µM).

On to `NCC(Cl)=C1CN(c2nc3c(cc2F)c(=O)c(C(=O)O)cn3C2CC2)C1` [Compound 81, 7-[3-(2-Amino-1-chloro-ethylidene)-azetidin-1-yl}-1-cyclopropyl-6-fluoro-4-oxo-1,4-dihydro-[1,8]naphthyridine-3-carboxylic acid], for which the MIC came to 0.06 µg/mL (≈ 0.158 µM) under setting [1]; 0.25 µg/mL (≈ 0.66 µM) under setting [2]; 1 µg/mL (≈ 2.64 µM) under setting [8]; 2 µg/mL (≈ 5.28 µM) under setting [3]; 2 µg/mL (≈ 5.28 µM) under setting [4].

In the case of `NCC(F)=C1CN(c2c(F)cc3c(=O)c(C(=O)O)cn(C4CC4)c3c2OC(F)F)C1` [Compound 160, 7-[3-(2-Amino-1-fluoro-ethylidene)-azetidin-1-yl]-1-cyclopropyl-8-difluoromethoxy-6-fluoro-4-oxo-1,4-dihydro-quinoline-3-carboxylic acid], the minimal inhibitory concentration (MIC) is 0.06 µg/mL (≈ 0.14 µM) under setting [1]; 0.12 µg/mL (≈ 0.281 µM) under setting [2]; 2 µg/mL (≈ 4.68 µM) under setting [8]; 2 µg/mL (≈ 4.68 µM) under setting [3]; 1 µg/mL (≈ 2.34 µM) under setting [4].

For `O=C(O)c1cn(C2CC2)c2nc(N3CCC(=CCO)CC3)c(F)cc2c1=O` [Compound 163, 1-Cyclopropyl-6-fluoro-7-[4-(2-hydroxy-ethylidene)-piperidin-1-yl]-4-oxo-1,4-dihydro-[1,8]naphthyridine-3-carboxylic acid], the MIC is, setting by setting: under setting [1], 0.12 µg/mL (≈ 0.321 µM); under setting [2], 1 µg/mL (≈ 2.68 µM); under setting [8], 4 µg/mL (≈ 10.7 µM); under setting [3], 4 µg/mL (≈ 10.7 µM).

For `O=C(O)c1cn(C2CC2)c2cc(N3CCC(=CCO)CC3)c(F)cc2c1=O` [Compound 164, 1-Cyclopropyl-6-fluoro-7-[4-(2-hydroxy-ethylidene)-piperidin-1-yl]-4-oxo-1,4-dihydro-quinoline-3-carboxylic acid], the MIC under setting [1] is 0.12 µg/mL (≈ 0.322 µM), the MIC under setting [2] came to 2 µg/mL (≈ 5.37 µM), the lowest concentration to inhibit growth under setting [8] (MIC) was 32 µg/mL (≈ 85.9 µM) and the MIC under setting [3] was above 32 µg/mL.

For the compound `CC(C)NCC(Cl)=C1CCN(c2nc3c(cc2F)c(=O)c(C(=O)O)cn3C2CC2)CC1` [Compound 166, 7-[4-(1-Chloro-2-isopropylamino-ethylidene)-piperidin-1-yl]-1-cyclopropyl-6-fluoro-4-oxo-1,4-dihydro-[1,8]naphthyridine-3-carboxylic acid], the MIC is, setting by setting: under setting [1], 0.5 µg/mL (≈ 1.11 µM); under setting [2], 1 µg/mL (≈ 2.23 µM); under setting [3], 4 µg/mL (≈ 8.91 µM); under setting [4], 4 µg/mL (≈ 8.91 µM).

Take `O=C(O)c1cn(C2CC2)c2nc(N3CCC(=C(F)CO)CC3)c(F)cc2c1=O` [Compound 172, 1-Cyclopropyl-6-fluoro-7-[4-(1-fluoro-2-hydroxy-ethylidene)-piperidin-1-yl]-4-oxo-1,4-dihydro-[1,8]naphthyridine-3-carboxylic acid]: the MIC is, setting by setting: under setting [1], 0.06 µg/mL (≈ 0.153 µM); under setting [2], 1 µg/mL (≈ 2.56 µM); under setting [8], 32 µg/mL (≈ 81.8 µM); under setting [3], 16 µg/mL (≈ 40.9 µM).
